# From patent publication US10464901B2, “Composition including benzene diamine derivative for preventing or treating degenerative brain diseases” (UNIST(ULSAN NATIONAL INSTITUTE OF SCIENCE AND TECHNOLOGY), priority 2017, dated 2019)
# How the values were obtained:
# Aβ40 and Aβ42 = test: Aβ aggregation inhibition in the presence or absence of metals, overall statements (FIG. 1); assay type: biochemical; details: two kinds of Aβ (Aβ40, Aβ42)
# Source text: (§1) It was examined whether the benzene diamine derivatives of the present disclosure have inhibitory effects on Aβ aggregation. Aβ has two isoforms, and therefore, effects on Aβ40 and Aβ42 were examined, respectively. When metals are involved in protein folding, the probability of abnormal folding is high. In this case, the probability of Aβ aggregate formation is further increased.
# (§2) In order to perform molecular analysis of Aβ aggregation-inhibitory effects of the benzene diamine derivatives of the present disclosure, gel electrophoresis and Western blotting were performed by using anti-Aβ antibody (6E10). As a control group, compound 1
# (§3) In detail, each sample (10 μl) was separated on a 10-20% Tris-tricine gel (Invitrogen, Grand Island, N.Y., USA). After separation, the proteins were transferred onto a nitrocellulose membrane and blocked with bovine serum albumin (BSA, 3% w/v, Sigma-Aldrich, St Louis, Mo., USA) in Tris-buffered saline (TBS) containing 0.1% Tween-20 (TBS-T) at room temperature for 2 hours or at 4° C. overnight. The membrane was incubated in a 2% BSA (w/v in TBS-T) solution, together with anti-Aβ antibody (6E10, 1:2,000, Covance, Princeton, N.J., USA), at room temperature for 4 hours or at 4° C. overnight. The membrane was washed with TBS-T (3×, 10 min), and a secondary mouse antibody (1:5,000 in 2% BSA w/v in TBS-T; Cayman Chemical Company, Ann Arbor, Mich., USA) was added thereto, followed by incubation at room temperature for 1 hour. Thermo Scientific SuperSignal West Pico Chemiluminescent Substrate (Thermo Scientific, Rockford, Ill., USA), Biosesang ECL Plus kit (Biosesang, Gyeonggi-do, Republic of Korea), or homemade ECL kit53 were used for visualization, and ChemiDoc MP Imaging System (Bio-Rad, Hercules, Calif., USA) was used for detection.
# [1] = tested on: human neuroblastoma cell line SK-N-BE(2)-M17 (M17); test: Cytotoxicity-inhibitory effect, MTT cell viability with Aβ with or without metals; assay type: cell-based; details: M17 cells, irrespective of Aβ isoforms and metals, FIG. 4
# Method: It was examined whether the benzene diamine derivatives of the present disclosure have cytotoxicity-inhibitory effect. Aβ aggregation and reactive oxygen species may cause cytotoxicity in neuronal cells, resulting in neuronal cell death.
# In detail, human neuroblastoma cell line SK-N-BE(2)-M17 (M17) (ATCC, Manassa, Va., USA) was cultured in a 1:1 minimum essential medium (MEM; GIBCO, Grand Island, N.Y., USA), Ham's F12K Kaighn's Modification Media (F12K; GIBCO) supplemented with 10% (v/v) fetal bovine serum (FBS; Atlanta Biologicals, Flowery Branch, Ga., USA), 100 U/mL penicillin (GIBCO), and […] streptomycin (GIBCO). M17 cells were seeded in a 96-well plate (150,000 in 100 μl per well), and treated with various concentrations of the compound (0-50 μM, 1% v/v DMSO) in the presence or absence of CuCl2 or ZnCl2 (a metal/ligand ratio of 1:1 or 1:2), and in the presence or absence of Aβ 40 (Aβ:metal:compound=10:10:20 μM). After incubation at 37° C. for 24 hours, 25 μl of MTT (3-(4,5-dimethylthiazol-2-yl)-2,5-diphenyltetrazolium bromide) (5 mg/mL in PBS, pH 7.4) (GIBCO) was added to each well, and each plate was incubated at 37° C. for 4 hours. […] Absorbance at 600 nm was measured by using a microplate reader.
# [2] = Antioxidant effect: free organic radical-scavenging activity (ABTS) using cell lysate; assay type: biochemical; details: Table 1 summary of Example 3; symbols not defined
# Method: It was examined whether the benzene diamine derivatives of the present disclosure have an antioxidant effect. It is known that reactive oxygen species induces oxidative stress in neuronal cells to cause neuronal cell death and causes protein misfolding to induce formation of Aβ aggregates. Therefore, compounds having antioxidant effects may be candidates for preventing or treating dementia.
# Free organic radical-scavenging activity of the compound was determined according to a protocol of Cayman Chemical Company (Ann Arbor, Mich., USA) with slight modifications. For antioxidant analysis using a cell lysate, cells were seeded in a 6-well plate, and cultured until they reached 80-90% confluence. A cell lysate was prepared according to a known method, washed with a cold phosphate buffer solution (PBS; pH 7.4, GIBCO), and then harvested. Cell pellet was produced by centrifugation (2,000 g, 4° C., 10 min). This pellet was sonicated (5 sec pulse, 20 sec interval, three times) in 2 ml of cold assay buffer S13 (5 mM potassium phosphate, pH 7.4; 0.9% NaCl; 0.1% glucose) on ice. A cell lysate was centrifuged at 4° C. for 10 minutes at 5,000 g. A supernatant was removed, and left on ice until use. To the cell lysate supernatant (10 μl), the compound, metmyoglobin, ABTS (2,2′-azino-bis-3-ethylbenzothiazoline-6-sulfonic acid), and hydrogen peroxide were sequentially added. The mixture was incubated on a shaker at room temperature for 5 minutes, and absorbance at 750 nm was measured. The compound at a final concentration of 45, 90, 135, 180, 225, or 330 μM and Trolox (6-hydroxy-2,5,7,8-tetramethyl-chroman-2-carboxylic acid, dissolved in EtOH) were used. Antioxidant activity was calculated according to the measured absorbance [% inhibition=100×(A0−A)/A0, A0 represents absorbance of the supernant of the cell lysate]. Each measurement was repeated in triplicate.
# Cu(II)-Aβ = test: Aβ aggregation inhibition, gel electrophoresis and Western blotting with anti-Aβ antibody (6E10); assay type: biochemical; details: Table 1 summary of Example 2; symbols not defined
# Source text: as §1, §2, §3
# Metal-free Aβ = test: as above; assay type: biochemical; details: Table 1 summary of Example 2; symbols not defined
# Source text: as §1, §2, §3
# Zn(II)-Aβ = test: as above; assay type: biochemical; details: Table 1 summary of Example 2; symbols not defined
# Source text: as §1, §2, §3
# PAMPA-BBB analysis = assay type: in vitro ADME
# Method: […] PAMPA-BBB analysis was performed by using a PAMPA Explorer kit (pION, Inc. Billerica, Mass., USA) according to the manufacture's protocol with slight modifications. […] The prepared solution was put in each well of a donor plate (200 μl, repeated 12 times). A polyvinylidene fluoride (PVDF, […]) filter membrane on an acceptor plate was coated with BBB-1 lipid formulation (5 μl, pION). The acceptor plate was placed on top of the donor plate to generate a “sandwich”. Brain sink buffer (BSB, 200 μl, pION) was added to each well of the acceptor plate. The sandwich-shaped plate was incubated for 4 hours at room temperature without stirring. UV-vis spectra of the solutions in the reference, acceptor, and donor plates were measured using a microplate reader. A PAMPA Explorer software [v. 3.8 (pION)] was used to calculate the −log Pe values for compounds. CNS±designations were assigned by comparison with compounds that were identified in previous reports.
"PAMPA-BBB permeability class (PAMPA-BBB analysis; 50 μM, incubation 4 hrs, U.V)","Papp at 4 h, 50 μM (PAMPA-BBB analysis; PAMPA, pH 7.4, 50 μM, incubation 4 hrs, U.V, read-out: Pe) [×10⁻⁶ cm/s]",CNS± designation (PAMPA-BBB analysis; assigned by comparison with compounds identified in previous reports),Structure (SMILES),inhibitory effect on Aβ aggregation (Aβ40 and Aβ42),effect in cytotoxicity-inhibition test (worded result) [1],Reactive oxygen species (antioxidant effect) [2],Cu(II)-Aβ (inhibitory effect on Aβ aggregation) (Cu(II)-Aβ),Metal-free Aβ (inhibitory effect on Aβ aggregation) (Metal-free Aβ),Zn(II)-Aβ (inhibitory effect on Aβ aggregation) (Zn(II)-Aβ)
,,,"c1ccc(NCc2ccccn2)cc1 [Compound 1, reference compound]",did not show inhibitory effect on Aβ aggregation under any conditions,did not show excellent Aβ aggregation-inhibitory effect,No effect,,,
,,,"Nc1ccc(NCc2ccc(F)cn2)cc1 [Compound 3, N^1-((5-fluoropyridin-2-yl)methyl)benzene-1,4-diamine]","showed inhibitory effect on both two kinds of Aβ, irrespective of the kind and presence of metals",,◯,◯,◯,◯
High,46.7,(CNS+),"CC(=O)[C@H]1CC[C@H]2[C@@H]3CCC4=CC(=O)CC[C@]4(C)[C@H]3CC[C@]12C [Progesterone, reference compound]",,,,,,
,,,"CN(C)c1ccc(NCc2nccn2C)cc1 [Compound 4, N^1,N^1-dimethyl-N^4-((1-methyl-1H-imidazol-2-yl)methyl)benzene-1,4-diamine]",showed inhibitory effect on Aβ with metals,,◯,◯,,◯
,,,"CN(C)c1ccc(NCCS)cc1 [Compound 5, 2-((4-(dimethylamino)phenyl)amino)ethane-1-thiol]","showed inhibitory effect on both two kinds of Aβ, irrespective of the kind and presence of metals",,◯,◯,◯,◯
